This assay deals with 598228-144-R-J1-PDC complex spheroid viability. Briefly: Anticancer human tumor 598228-144-R-J1-PDC patient-derived serous endometrial adenocarcinoma cell line growth inhibition [GQUAD]. The following applies: for viability, T/C: stronger effect = lower value. From the text:
DNA G-quadruplex Stabilizer Agents in Combinations in Complex Spheroids
A high-throughput screen of multi-cell type tumor spheroids was designed to identify active combinations of DNA G-quadruplex stabilizer agents and targeted small molecules. Complex spheroids include a stromal component modeled by human endothelial cells (HUVEC) and fibroblasts modeled by human mesenchymal stem cells (MSCs). The concentration ranges selected for each drug and investigational agent were based upon clinically achievable concentrations if the clinical Cmax of the agent was known.
Compounds. The drugs and investigational agents: pidnarulex (CX-5461; NSC782164), APTO-253 (NSC789042), BRACO-19 (NSC847499), peposertib (NSC802822), ceralasertib (NSC780249), elimusertib (NSC800525), camonsertib (NSC841442), AZD-1390 (NSC803789), olaparib (NSC753686), talazoparib (NSC767125), ART-558 (NSC835418), sotorasib (NSC818433), MRTX-1133 (NSC836407), SN-38 (NSC673596), topotecan (NSC609699), etoposide (NSC141540), doxorubicin (NSC123127), gemcitabine (NSC613327), 5-fluorouracil (NSC19893), paclitaxel (NSC125973), vemurafenib (NSC761431), panobinostat (NSC761190), R-306465 (JNJ-16241199; NSC773264), adavosertib (NSC754352), TP-3654 (NSC805149), carboplatin (NSC241240), KSQ-4279 (NSC840948), and staurosporine (NSC755774) were obtained from the National Cancer Institute (NCI) Developmental Therapeutics Program Chemical Repository (34). The FDA-approved anticancer drug set is available from the NCI Developmental Therapeutics Program. […] The stock solutions were prepared in dimethyl sulfoxide (DMSO, Sigma-Aldrich, St. Louis, MO, cat. D2650) at 800-fold the tested concentration and stored at -70 degrees C prior to their use. All drugs and investigational agents were tested over a range starting from a high concentration at or near the clinical Cmax and decreasing in half-log increments. If the clinical Cmax for an agent had not been determined, the highest concentration tested was 10 microM.
2.3 Cell Culture. All cells were maintained in an incubator at 37 degrees C and 5% CO2 with 95% humidity. The PDC lines were cultured according to standard operating procedures established by the NCI PDMR. All PDCs were thawed and cultured in Matrigel-coated flasks prepared with a working solution of 1X Ham's F-12 nutrient mix, without supplementation (Invitrogen, cat. 11765054), 100 U/mL penicillin-streptomycin (Invitrogen, cat. 15140122), and 2.5% Matrigel (Corning Inc., cat. 354248) for the first three passages. The 857933-349-R-J2-PDC line was cultured in 6C/Colon 1B media, which includes advanced DMEM/F-12 (Thermo Fisher Scientific, cat. 12634028), 10 mM HEPES (Thermo Fisher Scientific, cat. 15630080), 1X GlutaMAX supplement (Thermo Fisher Scientific, cat. 35050061), 0.1 mg/mL primocin (InvivoGen, cat. ant-pm-2), 10% defined fetal bovine serum, heat inactivated (HyClone Laboratories Inc., cat. SH30070.03HI), 50% L-WRN conditioned media (ATCC, cat. CRL-3276), 1.25 mM N-Acetyl-L-cysteine (Sigma-Aldrich, cat. A9165), 10 mM nicotinamide (Sigma-Aldrich, cat. N0636), 1X B-27 supplement (Thermo Fisher Scientific, cat. 17504044), 1X N-2 supplement (Thermo Fisher Scientific, cat. 17502048), 10 microM Y-27632 dihydrochloride (Tocris Bioscience, cat. 1254), and 50 ng/mL human EGF recombinant protein (Thermo Fisher Scientific, cat. PHG0311). The 485176-168-R4-J1-PDC line was cultured in Panc media, which includes all 6C/Colon 1B media components plus 100 ng/mL human FGF-10 (Thermo Fisher Scientific, cat. 100-26), 500 nM SB-431542 (Selleckchem, cat. S1067), and gastrin (Tocris, cat. 3006).
[…]

Setting [1] is: curve of first compound, second compound 0.0316 µM.
[2] abbreviates: curve of first compound, second compound 0.1 µM.
The mark [3] stands for this setting: curve of first compound, second compound 0.316 µM.
[4] abbreviates: curve of first compound, second compound 1 µM.
[5] abbreviates: curve of first compound, second compound 3.16 µM.
The mark [6] stands for this setting: curve of first compound, second compound 10 µM.
Setting [7] is: second compound 0.0316 µM, first compound 0.0316 µM.
[8] abbreviates: second compound 0.0316 µM, first compound 0.1 µM.
The mark [9] stands for this setting: second compound 0.0316 µM, first compound 0.316 µM.
Where [10] appears, read: second compound 0.0316 µM, first compound 1 µM.
[11] abbreviates: second compound 0.0316 µM, first compound 3.16 µM.
Where [12] appears, read: second compound 0.0316 µM, first compound 10 µM.
Where [13] appears, read: second compound 0.1 µM, first compound 0.0316 µM.
Setting [14] is: second compound 0.1 µM, first compound 0.1 µM.
Where [15] appears, read: second compound 0.1 µM, first compound 0.316 µM.
Where [16] appears, read: second compound 0.1 µM, first compound 1 µM.
[17] abbreviates: second compound 0.1 µM, first compound 3.16 µM.
Where [18] appears, read: second compound 0.1 µM, first compound 10 µM.
Setting [19] is: second compound 0.316 µM, first compound 0.0316 µM.
The mark [20] stands for this setting: second compound 0.316 µM, first compound 0.1 µM.
[21] abbreviates: second compound 0.316 µM, first compound 0.316 µM.
Setting [22] is: second compound 0.316 µM, first compound 1 µM.
[23] abbreviates: second compound 0.316 µM, first compound 3.16 µM.
Setting [24] is: second compound 0.316 µM, first compound 10 µM.
Where [25] appears, read: second compound 1 µM, first compound 0.0316 µM.
[26] abbreviates: second compound 1 µM, first compound 0.1 µM.
[27] abbreviates: second compound 1 µM, first compound 0.316 µM.
The mark [28] stands for this setting: second compound 1 µM, first compound 1 µM.
Setting [29] is: second compound 1 µM, first compound 3.16 µM.
The mark [30] stands for this setting: second compound 1 µM, first compound 10 µM.
The mark [31] stands for this setting: second compound 3.16 µM, first compound 0.0316 µM.
The mark [32] stands for this setting: second compound 3.16 µM, first compound 0.1 µM.
The mark [33] stands for this setting: second compound 3.16 µM, first compound 0.316 µM.
Setting [34] is: second compound 3.16 µM, first compound 1 µM.
Setting [35] is: second compound 3.16 µM, first compound 3.16 µM.
[36] abbreviates: second compound 3.16 µM, first compound 10 µM.
[37] abbreviates: second compound 10 µM, first compound 0.0316 µM.
Setting [38] is: second compound 10 µM, first compound 0.1 µM.
The mark [39] stands for this setting: second compound 10 µM, first compound 0.316 µM.
The mark [40] stands for this setting: second compound 10 µM, first compound 1 µM.
[41] abbreviates: second compound 10 µM, first compound 3.16 µM.
Setting [42] is: second compound 10 µM, first compound 10 µM.

“And” between values parts separate entries of the source, which are not always exact repeats. Equal entries are not always repeated.

Here are results for five compounds from PubChem BioAssay AID2060506 (Molecular Pharmacology Branch, DTP, NCI, 2025).
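Note: spheroids exposed to the agents for one week before reading.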
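Throughout, for viability, T/C: percent of vehicle DMSO control viability so 100% = untreated growth.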

As to `Cc1cnc(CNC(=O)c2c(=O)c3ccc(N4CCCN(C)CC4)nc3n3c2sc2ccccc23)cn1`, the viability, T/C – broadly, the result in the treated group divided by that in the control group, in per cent – was 73.5% [middle of 12 runs] (compound 0.1 µM), 65.9% [middle of 12 runs] (compound 1 µM) and 56.4% [middle of 12 runs] (compound 3.16 µM).
In the case of `COc1cccc2c1C(=O)c1c(O)c3c(c(O)c1C2=O)CC(O)(C(=O)CO)CC3OC1CC(N)C(O)C(C)O1` (centres undefined) + Cc1[nH]c2ccc(F)cc2c1-c1nc2c3cccnc3c3ncccc3c2[nH]1, the IC50 – broadly, the concentration that gives 50% inhibition – is, setting by setting: under setting [1], 658 nM; under setting [2], 889 nM; under setting [3], 1040 nM; under setting [4], 418 nM; under setting [5], below 31.6 nM; under setting [6], 646 nM. The viability, T/C by setting is: under setting [7], 97.1%; under setting [8], 81.6%; under setting [9], 69.8%; under setting [10], 42.8%; under setting [11], 5.14%; under setting [12], 0.27%. Besides, the viability, T/C runs as follows: under setting [13], 88.7%; under setting [14], 77.2%; under setting [15], 78.6%; under setting [16], 47%; under setting [17], 2.77%; under setting [18], 0.42%. The viability, T/C runs as follows: under setting [19], 84.7%; under setting [20], 72.8%; under setting [21], 74.7%; under setting [22], 51.9%; under setting [23], 3.76%; under setting [24], 1.38%. Further, the viability, T/C by setting is: under setting [25], 67.3%; under setting [26], 48.8%; under setting [27], 54.3%; under setting [28], 34.7%; under setting [29], 4.19%; under setting [30], 1.39%. Besides, the viability, T/C by setting is: under setting [31], 38.9%; under setting [32], 36.8%; under setting [33], 31.8%; under setting [34], 25.4%; under setting [35], 1.9%; under setting [36], 1.11%. The viability, T/C is 57.1% under setting [37]; 72.3% under setting [38]; 49% under setting [39]; 46.1% under setting [40]; 5.49% under setting [41]; 0.68% under setting [42].
With `O=C(NO)c1cnc(N2CCN(S(=O)(=O)c3ccc4ccccc4c3)CC2)nc1`, the viability, T/C runs as follows: (compound 0.0316 µM) 112% and 98.7% and 110%; (compound 0.1 µM) 49.4% and 40.7% and 59.1%; (compound 0.316 µM) 26.3% and 24.7% and 34%; (compound 1 µM) 0.49% and 0.43% and 0.75%; (compound 3.16 µM) 0.37% and 0.43% and 0.25%; (compound 10 µM) 0.35% and 0.28% and 0.23%. The IC50 (curve of compound) is 106 nM and 88 nM and 148 nM.
Take `Cc1[nH]c2ccc(F)cc2c1-c1nc2c3cccnc3c3ncccc3c2[nH]1`: the viability, T/C reads like this: (compound 0.0316 µM) 99.3% [middle of 12 runs]; (compound 3.16 µM) 46.7% [middle of 12 runs]; (compound 10 µM) 68.5% [middle of 12 runs]. Besides, the IC50 reads like this: (compound alone, run of 03/18/2024) > 10000 nM and 3620 nM; (compound alone, run of 03/26/2024) above 10000 nM.
Turning to `O=C(c1cc(Cc2n[nH]c(=O)c3ccccc23)ccc1F)N1CCN(C(=O)C2CC2)CC1` + Cc1cnc(CNC(=O)c2c(=O)c3ccc(N4CCCN(C)CC4)nc3n3c2sc2ccccc23)cn1, the IC50 under setting [1] is above 10000 nM; the IC50 under setting [2] was above 10000 nM; the IC50 under setting [3] came out at 9020 nM; the IC50 under setting [4] was above 10000 nM; the IC50 under setting [5] was above 10000 nM; the IC50 under setting [6] is below 31.6 nM. In addition, the viability, T/C by setting is: under setting [7], 82.4%; under setting [8], 89.4%; under setting [9], 73%; under setting [10], 68.7%; under setting [11], 84.4%; under setting [12], 63.2%. In addition, the viability, T/C under setting [13] was 70.9%; the viability, T/C under setting [14] is 75.6%; the viability, T/C under setting [15] is 63.8%; the viability, T/C under setting [16] was 63.1%; the viability, T/C under setting [17] was 63%; the viability, T/C under setting [18] was 67.8%. Moreover, the viability, T/C reads like this: under setting [19], 57%; under setting [20], 60.9%; under setting [21], 68.1%; under setting [22], 65.2%; under setting [23], 58.8%; under setting [24], 49.1%. For the same compound, the viability, T/C is 62.2% under setting [25]; 51.3% under setting [26]; 55.7% under setting [27]; 54.1% under setting [28]; 72.3% under setting [29]; 56% under setting [30]. Also, the viability, T/C runs as follows: under setting [31], 58.1%; under setting [32], 57.8%; under setting [33], 67.9%; under setting [34], 53.2%; under setting [35], 57.3%; under setting [36], 48.9%. In addition, the viability, T/C was 41.5% under setting [37]; 49.6% under setting [38]; 40.6% under setting [39]; 56.8% under setting [40]; 73.1% under setting [41]; 47.3% under setting [42].
